Laboratory results taken from ChEMBL document CHEMBL1125328, “Design and synthesis of a C7 mimetic for the predicted gamma-turn conformation found in several constrained RGD antagonists” (J Med Chem, 1992).
Bridge positions count the residues as written; N and C are the ends. Square brackets hold non-standard residues; d marks the D form. Peptide text beside a SMILES is read from it. NMeR = CN[C@@H](CCCNC(=N)N)C(=O)O

Molecular target: Integrin alpha-IIb/beta-3 (Homo sapiens, UniProt P05106+P08514)
Test: Inhibition of [3H]-107260 binding to purified GPIIb/IIIa of human platelets

Sequence of Integrin alpha-IIb/beta-3 (P05106 27-788 limits assumed): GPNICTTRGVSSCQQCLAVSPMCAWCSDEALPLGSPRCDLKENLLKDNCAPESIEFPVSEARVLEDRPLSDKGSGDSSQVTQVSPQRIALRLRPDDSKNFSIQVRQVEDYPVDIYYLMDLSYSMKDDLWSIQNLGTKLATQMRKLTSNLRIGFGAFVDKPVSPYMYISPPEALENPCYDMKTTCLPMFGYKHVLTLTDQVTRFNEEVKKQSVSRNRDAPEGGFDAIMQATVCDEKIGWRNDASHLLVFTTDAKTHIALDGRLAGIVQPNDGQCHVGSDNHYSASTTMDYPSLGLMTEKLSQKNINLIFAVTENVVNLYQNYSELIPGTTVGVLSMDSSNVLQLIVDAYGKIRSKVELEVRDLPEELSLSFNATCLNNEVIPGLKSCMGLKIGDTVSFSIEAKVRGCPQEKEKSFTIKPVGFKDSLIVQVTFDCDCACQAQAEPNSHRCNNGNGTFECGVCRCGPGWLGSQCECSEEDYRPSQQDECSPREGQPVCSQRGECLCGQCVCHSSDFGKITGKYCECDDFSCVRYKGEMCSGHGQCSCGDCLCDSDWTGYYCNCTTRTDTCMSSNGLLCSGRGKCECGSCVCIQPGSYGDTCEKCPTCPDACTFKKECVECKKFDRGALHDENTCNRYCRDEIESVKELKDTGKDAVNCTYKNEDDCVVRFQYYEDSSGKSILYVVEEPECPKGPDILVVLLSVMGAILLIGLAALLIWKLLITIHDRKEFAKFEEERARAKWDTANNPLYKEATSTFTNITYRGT
Sequence of Integrin alpha-IIb/beta-3 (P08514 32-887 limits assumed): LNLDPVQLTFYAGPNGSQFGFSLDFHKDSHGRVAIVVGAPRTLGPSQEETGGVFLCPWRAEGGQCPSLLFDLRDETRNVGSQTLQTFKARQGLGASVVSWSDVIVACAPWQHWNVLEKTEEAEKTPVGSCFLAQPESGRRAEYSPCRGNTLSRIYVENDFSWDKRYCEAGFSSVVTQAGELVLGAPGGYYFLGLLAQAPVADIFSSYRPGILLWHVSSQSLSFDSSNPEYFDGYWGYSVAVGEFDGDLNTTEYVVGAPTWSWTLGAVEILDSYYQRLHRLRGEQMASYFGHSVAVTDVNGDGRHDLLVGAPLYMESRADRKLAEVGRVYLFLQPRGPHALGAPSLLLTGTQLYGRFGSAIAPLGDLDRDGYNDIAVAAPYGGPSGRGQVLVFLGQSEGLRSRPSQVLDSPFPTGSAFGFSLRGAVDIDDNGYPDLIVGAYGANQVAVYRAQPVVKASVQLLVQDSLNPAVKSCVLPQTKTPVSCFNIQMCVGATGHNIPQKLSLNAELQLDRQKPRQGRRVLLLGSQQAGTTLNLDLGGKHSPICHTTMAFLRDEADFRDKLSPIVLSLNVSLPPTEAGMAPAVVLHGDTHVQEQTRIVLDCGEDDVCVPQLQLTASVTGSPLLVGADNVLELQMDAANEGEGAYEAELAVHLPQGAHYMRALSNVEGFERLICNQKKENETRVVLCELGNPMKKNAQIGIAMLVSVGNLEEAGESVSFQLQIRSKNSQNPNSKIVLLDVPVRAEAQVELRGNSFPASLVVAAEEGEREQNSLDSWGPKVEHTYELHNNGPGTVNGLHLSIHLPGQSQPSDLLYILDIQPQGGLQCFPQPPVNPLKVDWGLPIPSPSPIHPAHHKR
Sequence of Integrin alpha-IIb/beta-3 (P08514 891-1039 limits assumed): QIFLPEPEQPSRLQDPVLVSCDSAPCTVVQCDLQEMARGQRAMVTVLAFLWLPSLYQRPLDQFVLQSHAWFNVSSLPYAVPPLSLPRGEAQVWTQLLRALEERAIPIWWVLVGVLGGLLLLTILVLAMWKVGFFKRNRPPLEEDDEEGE

Structure (SMILES) | Ki
CC(=O)N(C)C(CCCNC(=N)N)C(=O)NCC1=CC(CC(=O)O)C(=O)N(c2ccccc2)CC1 (configuration not stated) | 0.271 µM
CC(=O)N[C@H]1CSSC[C@@H](C(N)=O)NC(=O)[C@H](CC(=O)O)NC(=O)CNC(=O)[C@H](CCCN=C(N)N)N(C)C1=O (Ac-C[NMeR]GDC-NH2; disulfide 1-5) | 0.175 µM
